Data from patent US9340590B2 (priority 2011, dated 2016).
Read-outs that look alike come from different tables or passages of the source. Positions of bridges follow the written chain, without caps; N, C: chain ends. Non-standard residues stand in square brackets, D forms with d. Residues, ends and D or L forms follow the SMILES beside them. No end group written: not given here. Lys(Me2) = CN(C)CCCC[C@H](N)C(=O)O; Abu = CC[C@H](N)C(=O)O

Columns and labels:
[1] = biological target: hNav1.3 (Homo sapiens, UniProt Q9NY46); assay: cell-based; conditions: IonWorks Quattro, use-dependent block, hNav1.3; read-out: IWQ Use Nav1.3
[2] = biological target: hNav1.7 (Homo sapiens, UniProt Q15858); assay: cell-based; assay type: cell-based
[3] = IonWorks Quattro, Use, read-out: IWQ Use Nav1.7
[4] = IonWorks Quattro, use-dependent, […], read-out: IWQ Use Nav1.7 (μm)

Sequence of hNav1.7 (Q15858 whole entry, looked up): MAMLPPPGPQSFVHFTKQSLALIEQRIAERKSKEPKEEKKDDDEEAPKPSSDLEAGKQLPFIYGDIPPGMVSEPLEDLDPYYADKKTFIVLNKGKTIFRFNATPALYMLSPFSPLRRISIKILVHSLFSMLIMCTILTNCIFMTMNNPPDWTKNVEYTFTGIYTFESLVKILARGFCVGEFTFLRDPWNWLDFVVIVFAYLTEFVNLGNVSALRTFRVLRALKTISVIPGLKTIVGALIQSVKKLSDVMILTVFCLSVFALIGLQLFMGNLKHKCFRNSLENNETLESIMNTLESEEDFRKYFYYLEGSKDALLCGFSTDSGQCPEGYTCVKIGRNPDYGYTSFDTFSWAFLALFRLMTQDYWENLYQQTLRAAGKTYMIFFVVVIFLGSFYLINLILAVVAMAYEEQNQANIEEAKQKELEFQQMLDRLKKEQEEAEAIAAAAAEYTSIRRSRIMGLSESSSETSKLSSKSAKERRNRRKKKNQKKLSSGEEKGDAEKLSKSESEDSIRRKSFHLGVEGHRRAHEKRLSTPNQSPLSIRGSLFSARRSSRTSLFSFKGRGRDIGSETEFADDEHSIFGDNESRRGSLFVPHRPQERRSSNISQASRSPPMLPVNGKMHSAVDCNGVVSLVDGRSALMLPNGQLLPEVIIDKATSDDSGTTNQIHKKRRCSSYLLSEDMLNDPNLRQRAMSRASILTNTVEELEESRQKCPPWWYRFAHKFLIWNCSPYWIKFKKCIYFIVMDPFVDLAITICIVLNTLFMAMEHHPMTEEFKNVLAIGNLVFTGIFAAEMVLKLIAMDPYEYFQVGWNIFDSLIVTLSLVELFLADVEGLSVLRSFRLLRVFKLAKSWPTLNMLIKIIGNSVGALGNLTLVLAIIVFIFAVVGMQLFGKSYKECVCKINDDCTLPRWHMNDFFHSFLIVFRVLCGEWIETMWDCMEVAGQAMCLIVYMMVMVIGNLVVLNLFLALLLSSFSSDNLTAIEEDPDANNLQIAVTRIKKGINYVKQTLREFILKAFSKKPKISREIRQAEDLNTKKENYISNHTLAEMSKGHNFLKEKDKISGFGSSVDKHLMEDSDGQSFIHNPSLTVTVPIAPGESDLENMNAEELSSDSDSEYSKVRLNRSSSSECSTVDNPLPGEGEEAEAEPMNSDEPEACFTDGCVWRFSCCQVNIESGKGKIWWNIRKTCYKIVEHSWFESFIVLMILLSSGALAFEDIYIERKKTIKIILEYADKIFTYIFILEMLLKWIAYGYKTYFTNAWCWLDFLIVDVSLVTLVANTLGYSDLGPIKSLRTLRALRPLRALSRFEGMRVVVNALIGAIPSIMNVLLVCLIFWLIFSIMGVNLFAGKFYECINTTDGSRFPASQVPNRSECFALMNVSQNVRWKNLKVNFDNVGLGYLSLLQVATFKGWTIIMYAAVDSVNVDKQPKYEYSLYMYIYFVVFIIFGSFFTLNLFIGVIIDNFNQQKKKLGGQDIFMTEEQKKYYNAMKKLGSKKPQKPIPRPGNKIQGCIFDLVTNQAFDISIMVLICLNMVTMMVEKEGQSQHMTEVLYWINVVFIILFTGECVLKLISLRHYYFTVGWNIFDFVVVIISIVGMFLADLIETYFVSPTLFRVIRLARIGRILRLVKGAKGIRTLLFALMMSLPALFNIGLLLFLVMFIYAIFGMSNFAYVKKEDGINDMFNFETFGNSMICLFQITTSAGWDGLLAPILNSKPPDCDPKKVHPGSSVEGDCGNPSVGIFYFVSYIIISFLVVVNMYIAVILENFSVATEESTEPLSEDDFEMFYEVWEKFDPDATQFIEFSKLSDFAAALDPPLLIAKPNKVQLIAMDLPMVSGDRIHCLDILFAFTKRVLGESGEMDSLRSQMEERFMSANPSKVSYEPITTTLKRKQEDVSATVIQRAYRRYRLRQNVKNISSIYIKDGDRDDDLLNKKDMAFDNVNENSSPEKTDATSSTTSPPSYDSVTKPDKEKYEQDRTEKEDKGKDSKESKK
Sequence of hNav1.3 (Q9NY46 whole entry, looked up): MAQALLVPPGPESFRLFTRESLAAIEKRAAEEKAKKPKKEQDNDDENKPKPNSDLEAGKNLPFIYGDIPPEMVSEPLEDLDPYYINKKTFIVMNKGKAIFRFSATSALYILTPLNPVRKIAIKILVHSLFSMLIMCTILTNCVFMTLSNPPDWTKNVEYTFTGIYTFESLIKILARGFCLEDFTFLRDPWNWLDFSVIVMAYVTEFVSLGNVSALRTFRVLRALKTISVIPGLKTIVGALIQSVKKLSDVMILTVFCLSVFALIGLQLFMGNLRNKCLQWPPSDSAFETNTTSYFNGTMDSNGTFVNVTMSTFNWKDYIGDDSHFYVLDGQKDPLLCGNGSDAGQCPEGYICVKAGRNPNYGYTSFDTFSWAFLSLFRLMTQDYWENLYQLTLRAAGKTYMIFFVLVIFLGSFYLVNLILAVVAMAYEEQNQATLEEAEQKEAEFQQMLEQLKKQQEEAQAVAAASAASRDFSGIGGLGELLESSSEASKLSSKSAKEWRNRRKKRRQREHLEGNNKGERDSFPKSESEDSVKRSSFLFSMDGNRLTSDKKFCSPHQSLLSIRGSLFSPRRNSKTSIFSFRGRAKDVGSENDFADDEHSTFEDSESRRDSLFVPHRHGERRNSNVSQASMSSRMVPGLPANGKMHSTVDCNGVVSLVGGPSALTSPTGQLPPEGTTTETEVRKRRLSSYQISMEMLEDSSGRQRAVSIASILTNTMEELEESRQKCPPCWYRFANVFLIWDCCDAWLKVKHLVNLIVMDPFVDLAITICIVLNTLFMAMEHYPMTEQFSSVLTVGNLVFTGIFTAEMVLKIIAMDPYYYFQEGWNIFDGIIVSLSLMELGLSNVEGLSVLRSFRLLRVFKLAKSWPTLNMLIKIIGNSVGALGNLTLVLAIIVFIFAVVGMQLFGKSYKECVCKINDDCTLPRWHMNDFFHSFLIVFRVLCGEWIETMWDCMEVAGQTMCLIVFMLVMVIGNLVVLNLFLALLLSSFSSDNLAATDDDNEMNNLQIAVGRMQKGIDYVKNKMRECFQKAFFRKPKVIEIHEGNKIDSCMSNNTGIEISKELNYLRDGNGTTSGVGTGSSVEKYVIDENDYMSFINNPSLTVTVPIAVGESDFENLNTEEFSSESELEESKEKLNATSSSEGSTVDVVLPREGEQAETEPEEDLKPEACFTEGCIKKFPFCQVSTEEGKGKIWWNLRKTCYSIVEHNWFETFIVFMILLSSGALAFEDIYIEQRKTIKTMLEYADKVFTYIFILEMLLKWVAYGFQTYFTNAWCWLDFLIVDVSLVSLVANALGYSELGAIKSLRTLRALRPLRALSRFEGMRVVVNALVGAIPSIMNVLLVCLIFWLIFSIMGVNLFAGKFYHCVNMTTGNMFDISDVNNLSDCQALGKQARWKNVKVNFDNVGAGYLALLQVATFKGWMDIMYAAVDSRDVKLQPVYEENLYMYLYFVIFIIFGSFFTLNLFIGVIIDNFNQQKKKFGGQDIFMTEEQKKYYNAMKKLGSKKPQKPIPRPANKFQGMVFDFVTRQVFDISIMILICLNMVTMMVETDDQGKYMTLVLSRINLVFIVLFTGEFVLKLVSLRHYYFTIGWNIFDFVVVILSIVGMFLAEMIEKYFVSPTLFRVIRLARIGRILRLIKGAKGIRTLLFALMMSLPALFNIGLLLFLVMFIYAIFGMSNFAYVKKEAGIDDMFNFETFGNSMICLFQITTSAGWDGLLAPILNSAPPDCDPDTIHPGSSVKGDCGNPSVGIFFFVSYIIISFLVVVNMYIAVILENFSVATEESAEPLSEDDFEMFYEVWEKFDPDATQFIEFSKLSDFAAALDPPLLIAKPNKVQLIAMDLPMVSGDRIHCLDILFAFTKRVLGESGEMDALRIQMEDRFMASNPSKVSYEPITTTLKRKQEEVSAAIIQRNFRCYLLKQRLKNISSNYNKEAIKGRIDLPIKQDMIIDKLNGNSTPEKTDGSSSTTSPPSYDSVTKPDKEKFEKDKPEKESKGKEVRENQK

## CC[C@H](C)[C@@H]1NC(=O)[C@@H]2CSSC[C@@H]3NC(=O)[C@H](C(C)C)NC(=O)[C@H](CC(C)C)NC(=O)[C@H](CC(N)=O)NC(=O)[C@@H]4CCCN4C(=O)[C@H](CCCNC(=N)N)NC(=O)[C@H](CSSC[C@H](NC(=O)[C@@H](N)CC(=O)O)C(=O)N[C@@H](CC(C)C)C(=O)NCC(=O)N[C@@H](Cc4ccccc4)C(=O)N[C@@H](CCSC)C(=O)N[C@@H](CCCNC(=N)N)C(=O)N[C@@H](CCCCN)C(=O)N2)NC(=O)[C@H](CSSC[C@@H](C(=O)N[C@@H](CCCCN)C(=O)N[C@@H](Cc2ccc(O)cc2)C(=O)N[C@H](C(=O)N[C@@H](Cc2ccccc2)C(N)=O)C(C)C)NC(=O)[C@H](Cc2c[nH]c4ccccc24)NC(=O)[C@H](CCC(N)=O)NC(=O)[C@H](Cc2cnc[nH]2)NC(=O)[C@H]([C@@H](C)O)NC(=O)[C@H](CCCNC(=N)N)NC(=O)[C@H](CO)NC3=O)NC(=O)[C@H](CCCCN)NC(=O)[C@H](CC(=O)O)NC(=O)[C@H](CC(N)=O)NC(=O)[C@H](CC(=O)O)NC(=O)[C@@H]2CCCN2C1=O [SEQ ID NO: 763, [Gln28]GpTx-1] (H-DCLGFMRKCIPDNDKCCRPNLVCSRTHQWCKYVF-NH2; disulfide 2-17, 9-23, 16-30)
[1]
  IC50: 270 nM
[2]
  IC50: 190 nM

## CSCC[C@@H]1NC(=O)[C@H](Cc2ccccc2)NC(=O)CNC(=O)[C@H](CC(C)C)NC(=O)[C@@H](NC(=O)[C@@H](N)CC(=O)O)CSSC[C@@H]2NC(=O)[C@@H]3CSSC[C@@H](C(=O)N[C@@H](CCCCN)C(=O)N[C@@H](Cc4ccc(O)cc4)C(=O)N[C@H](C(=O)N[C@@H](Cc4ccccc4)C(N)=O)C(C)C)NC(=O)[C@H](Cc4c[nH]c5ccccc45)NC(=O)[C@H](CCCCN)NC(=O)[C@H](Cc4c[nH]cn4)NC(=O)[C@H]([C@@H](C)O)NC(=O)[C@H](CCCNC(=N)N)NC(=O)[C@H](CO)NC(=O)[C@H](CSSC[C@H](NC(=O)[C@H](CCCCN)NC(=O)[C@H](CCCNC(=N)N)NC1=O)C(=O)N[C@@H](Cc1ccccc1)C(=O)N1CCC[C@H]1C(=O)N[C@@H](CC(=O)O)C(=O)N[C@@H](CC(N)=O)C(=O)N[C@@H](CC(=O)O)C(=O)N[C@@H](CCCCN)C(=O)N3)NC(=O)[C@H](C(C)C)NC(=O)[C@H](CC(C)C)NC(=O)[C@H](CC(N)=O)NC(=O)[C@@H]1CCCN1C(=O)[C@H](CCCNC(=N)N)NC2=O [compound 302] (H-DCLGFMRKCFPDNDKCCRPNLVCSRTHKWCKYVF-NH2; disulfide 2-17, 9-23, 16-30)
[2]; [3]
  IC50: 110 nM

## CSCC[C@@H]1NC(=O)[C@H](Cc2ccccc2)NC(=O)CNC(=O)[C@H](CC(C)C)NC(=O)[C@@H](NC(=O)[C@@H](N)CC(=O)O)CSSC[C@@H]2NC(=O)[C@@H]3CSSC[C@@H](C(=O)N[C@@H](CCCCN)C(=O)N[C@@H](Cc4ccc(O)cc4)C(=O)N[C@H](C(=O)N[C@@H](Cc4ccccc4)C(N)=O)C(C)C)NC(=O)[C@H](Cc4c[nH]c5ccccc45)NC(=O)[C@H](CCCCN)NC(=O)[C@H](Cc4c[nH]cn4)NC(=O)[C@H]([C@@H](C)O)NC(=O)[C@H](CCCNC(=N)N)NC(=O)[C@H](CO)NC(=O)[C@H](CSSC[C@H](NC(=O)[C@H](CCCCN)NC(=O)[C@H](CCCNC(=N)N)NC1=O)C(=O)N[C@@H](Cc1c[nH]cn1)C(=O)N1CCC[C@H]1C(=O)N[C@@H](CC(=O)O)C(=O)N[C@@H](CC(N)=O)C(=O)N[C@@H](CC(=O)O)C(=O)N[C@@H](CCCCN)C(=O)N3)NC(=O)[C@H](C(C)C)NC(=O)[C@H](CC(C)C)NC(=O)[C@H](CC(N)=O)NC(=O)[C@@H]1CCCN1C(=O)[C@H](CCCNC(=N)N)NC2=O [compound 304] (H-DCLGFMRKCHPDNDKCCRPNLVCSRTHKWCKYVF-NH2; disulfide 2-17, 9-23, 16-30)
[2]; [3]
  IC50: 50 nM

## CSCC[C@@H]1NC(=O)[C@H](Cc2ccccc2)NC(=O)CNC(=O)[C@H](CC(C)C)NC(=O)[C@@H](NC(=O)[C@@H](N)CC(=O)O)CSSC[C@@H]2NC(=O)[C@@H]3CSSC[C@@H](C(=O)N[C@@H](CCCCN)C(=O)N[C@@H](Cc4ccc(O)cc4)C(=O)N[C@H](C(=O)N[C@@H](Cc4ccccc4)C(N)=O)C(C)C)NC(=O)[C@H](Cc4c[nH]c5ccccc45)NC(=O)[C@H](CCCCN)NC(=O)[C@H](Cc4c[nH]cn4)NC(=O)[C@H]([C@@H](C)O)NC(=O)[C@H](CCCNC(=N)N)NC(=O)[C@H](CO)NC(=O)[C@H](CSSC[C@H](NC(=O)[C@H](CCCCN)NC(=O)[C@H](CCCNC(=N)N)NC1=O)C(=O)N[C@@H](CO)C(=O)N1CCC[C@H]1C(=O)N[C@@H](CC(=O)O)C(=O)N[C@@H](CC(N)=O)C(=O)N[C@@H](CC(=O)O)C(=O)N[C@@H](CCCCN)C(=O)N3)NC(=O)[C@H](C(C)C)NC(=O)[C@H](CC(C)C)NC(=O)[C@H](CC(N)=O)NC(=O)[C@@H]1CCCN1C(=O)[C@H](CCCNC(=N)N)NC2=O [compound 305] (H-DCLGFMRKCSPDNDKCCRPNLVCSRTHKWCKYVF-NH2; disulfide 2-17, 9-23, 16-30)
[2]; [3]
  IC50: 50 nM

## CSCC[C@@H]1NC(=O)[C@H](Cc2ccccc2)NC(=O)CNC(=O)[C@H](CC(C)C)NC(=O)[C@@H](NC(=O)[C@@H](N)CC(=O)O)CSSC[C@@H]2NC(=O)[C@@H]3CSSC[C@@H](C(=O)N[C@@H](CCCCN)C(=O)N[C@@H](Cc4ccc(O)cc4)C(=O)N[C@H](C(=O)N[C@@H](Cc4ccccc4)C(N)=O)C(C)C)NC(=O)[C@H](Cc4c[nH]c5ccccc45)NC(=O)[C@H](CCCCN)NC(=O)[C@H](Cc4c[nH]cn4)NC(=O)[C@H]([C@@H](C)O)NC(=O)[C@H](CCCNC(=N)N)NC(=O)[C@H](CO)NC(=O)[C@H](CSSC[C@H](NC(=O)[C@H](CCCCN)NC(=O)[C@H](CCCNC(=N)N)NC1=O)C(=O)N[C@@H]([C@@H](C)O)C(=O)N1CCC[C@H]1C(=O)N[C@@H](CC(=O)O)C(=O)N[C@@H](CC(N)=O)C(=O)N[C@@H](CC(=O)O)C(=O)N[C@@H](CCCCN)C(=O)N3)NC(=O)[C@H](C(C)C)NC(=O)[C@H](CC(C)C)NC(=O)[C@H](CC(N)=O)NC(=O)[C@@H]1CCCN1C(=O)[C@H](CCCNC(=N)N)NC2=O [compound 309] (H-DCLGFMRKCTPDNDKCCRPNLVCSRTHKWCKYVF-NH2; disulfide 2-17, 9-23, 16-30)
[2]; [3]
  IC50: 100 nM

## CC[C@H](C)[C@@H]1NC(=O)[C@@H]2CSSC[C@@H]3NC(=O)[C@H](C(C)C)NC(=O)[C@H](CC(C)C)NC(=O)[C@H](CC(N)=O)NC(=O)[C@@H]4CCCN4C(=O)[C@H](CCCCN(C)C)NC(=O)[C@H](CSSC[C@H](NC(=O)[C@@H](N)CC(=O)O)C(=O)N[C@@H](CC(C)C)C(=O)NCC(=O)N[C@@H](Cc4ccccc4)C(=O)N[C@@H](CCSC)C(=O)N[C@@H](CCCNC(=N)N)C(=O)N[C@@H](CCCCN)C(=O)N2)NC(=O)[C@H](CSSC[C@@H](C(=O)N[C@@H](CCCCN)C(=O)N[C@@H](Cc2ccc(O)cc2)C(=O)N[C@H](C(=O)N[C@@H](Cc2ccccc2)C(N)=O)C(C)C)NC(=O)[C@H](Cc2c[nH]c4ccccc24)NC(=O)[C@H](CCCCN)NC(=O)[C@H](Cc2c[nH]cn2)NC(=O)[C@H]([C@@H](C)O)NC(=O)[C@H](CCCNC(=N)N)NC(=O)[C@H](CO)NC3=O)NC(=O)[C@H](CCCCN)NC(=O)[C@H](CC(=O)O)NC(=O)[C@H](CC(N)=O)NC(=O)[C@H](CC(=O)O)NC(=O)[C@@H]2CCCN2C1=O [compound 314] (H-DCLGFMRKCIPDNDKCC[Lys(Me2)]PNLVCSRTHKWCKYVF-NH2; disulfide 2-17, 9-23, 16-30)
[2]; [3]
  IC50: 210 nM

## CC[C@H](C)[C@@H]1NC(=O)[C@@H]2CSSC[C@@H]3NC(=O)[C@H](C(C)C)NC(=O)[C@H](CC(C)C)NC(=O)[C@H](CC(N)=O)NC(=O)[C@@H]4CCCN4C(=O)[C@H](CCCNC(=N)N)NC(=O)[C@H](CSSC[C@H](NC(=O)[C@@H](N)CC(=O)O)C(=O)N[C@@H](CC(C)C)C(=O)NCC(=O)N[C@@H](Cc4ccccc4)C(=O)N[C@@H](CCSC)C(=O)N[C@@H](CCCNC(=N)N)C(=O)N[C@@H](CCCCN)C(=O)N2)NC(=O)[C@H](CSSC[C@@H](C(=O)N[C@@H](CCCCN)C(=O)N[C@@H](Cc2ccc(O)cc2)C(=O)N[C@H](C(N)=O)C(C)C)NC(=O)[C@H](Cc2c[nH]c4ccccc24)NC(=O)[C@H](CCCCN)NC(=O)[C@H](Cc2c[nH]cn2)NC(=O)[C@H]([C@@H](C)O)NC(=O)[C@H](CCCNC(=N)N)NC(=O)[C@H](CO)NC3=O)NC(=O)[C@H](CCCCN)NC(=O)[C@H](CC(=O)O)NC(=O)[C@H](CC(N)=O)NC(=O)[C@H](CC(=O)O)NC(=O)[C@@H]2CCCN2C1=O [compound 415] (H-DCLGFMRKCIPDNDKCCRPNLVCSRTHKWCKYV-NH2; disulfide 2-17, 9-23, 16-30)
[2]; [4]
  IC50: 2350 nM

## CC[C@H](C)[C@@H]1NC(=O)[C@@H]2CSSC[C@@H]3NC(=O)[C@H](C(C)C)NC(=O)[C@H](CC(C)C)NC(=O)[C@H](CC(N)=O)NC(=O)[C@@H]4CCCN4C(=O)[C@H](CCCNC(=N)N)NC(=O)[C@H](CSSC[C@H](NC(=O)[C@@H](N)CC(=O)O)C(=O)N[C@@H](CC(C)C)C(=O)NCC(=O)N[C@@H](Cc4ccccc4)C(=O)N[C@@H](CCSC)C(=O)N[C@@H](CCCNC(=N)N)C(=O)N[C@@H](CCCCN)C(=O)N2)NC(=O)[C@H](CSSC[C@@H](C(=O)N[C@@H](CCCCN)C(=O)N[C@@H](Cc2ccc(O)cc2)C(N)=O)NC(=O)[C@H](Cc2c[nH]c4ccccc24)NC(=O)[C@H](CCCCN)NC(=O)[C@H](Cc2c[nH]cn2)NC(=O)[C@H]([C@@H](C)O)NC(=O)[C@H](CCCNC(=N)N)NC(=O)[C@H](CO)NC3=O)NC(=O)[C@H](CCCCN)NC(=O)[C@H](CC(=O)O)NC(=O)[C@H](CC(N)=O)NC(=O)[C@H](CC(=O)O)NC(=O)[C@@H]2CCCN2C1=O [compound 416] (H-DCLGFMRKCIPDNDKCCRPNLVCSRTHKWCKY-NH2; disulfide 2-17, 9-23, 16-30)
[2]; [4]
  IC50: 1500 nM

## [2-Abu-2,17]GpTx-1 (D[Abu]LGFMRKCIPDNDKC[Abu]RPNLVCSRTHKWCKYVF-NH2; ends and bridges not checked)
[2]
  activity against NaV1.7 relative to GpTx-1, in words: retains significant activity

## [Glu18;desAsn20]GpTx-1 (DCLGFMRKCIPDNDKCCEGLVCSRTHKWCKYVF-NH2; ends and bridges not checked)
[2]
  activity against NaV1.7 relative to GpTx-1, in words: without substantial impact on the activity

## [Ser-Ser19]GpTx-1 (DCLGFMRKCIPDNDKCCRSSNLVCSRTHKWCKYVF-NH2; ends and bridges not checked)
[2]
  activity against NaV1.7 relative to GpTx-1, in words: without substantial impact on the activity
